#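 Cells were grown in 96-well plates and exposed to each compound for 48 hours at five concentrations; endpoints were interpolated linearly between bracketing concentrations, or set to the highest concentration if not reached. TGI is the concentration that stops growth completely.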
# Experiments:
# Experiment in all cases: inhibition of tumour cell growth, NCI panel, 48 h
# UO-31 renal = test system: UO-31 renal
# OVCAR-4 ovarian = test system: OVCAR-4 ovarian
# TK-10 renal = test system: TK-10 renal
# NCI-H23 lung = test system: NCI-H23 lung
# NCI-H226 lung = test system: NCI-H226 lung
# K-562 leukemia = test system: K-562 leukemia
# UACC-257 melanoma = test system: UACC-257 melanoma
# MDA-MB-231 breast = test system: MDA-MB-231 breast
# IGROV1 ovarian = test system: IGROV1 ovarian
# UACC-62 melanoma = test system: UACC-62 melanoma
# MALME-3M melanoma = test system: MALME-3M melanoma
# SK-OV-3 ovarian = test system: SK-OV-3 ovarian
# LOX IMVI melanoma = test system: LOX IMVI melanoma
# SK-MEL-2 melanoma = test system: SK-MEL-2 melanoma
# SN12C renal = test system: SN12C renal
# OVCAR-5 ovarian = test system: OVCAR-5 ovarian
# SNB-19 CNS = test system: SNB-19 CNS
# HT29 colon = test system: HT29 colon
# RPMI-8226 leukemia = test system: RPMI-8226 leukemia
# CAKI-1 renal = test system: CAKI-1 renal
# SR leukemia = test system: SR leukemia
# MCF7 breast = test system: MCF7 breast
# SF-268 CNS = test system: SF-268 CNS
# NCI-H522 lung = test system: NCI-H522 lung
# COLO 205 colon = test system: COLO 205 colon
# HCT-15 colon = test system: HCT-15 colon
# A549 NSCLC = test system: A549 NSCLC
# SK-MEL-28 melanoma = test system: SK-MEL-28 melanoma
# NCI-H460 lung = test system: NCI-H460 lung
# CCRF-CEM leukemia = test system: CCRF-CEM leukemia
# HOP-62 NSCLC = test system: HOP-62 NSCLC
# SW-620 colon = test system: SW-620 colon
# HCC-2998 colon = test system: HCC-2998 colon
# T-47D breast = test system: T-47D breast
# SNB-75 CNS = test system: SNB-75 CNS
# HS 578T breast = test system: HS 578T breast
# ACHN renal = test system: ACHN renal
# SF-295 CNS = test system: SF-295 CNS
# MDA-MB-435 = test system: MDA-MB-435
# OVCAR-8 ovarian = test system: OVCAR-8 ovarian
# A498 renal = test system: A498 renal
# EKVX NSCLC = test system: EKVX NSCLC
# M14 melanoma = test system: M14 melanoma
# HCT-116 colon = test system: HCT-116 colon
# MDA-N = test system: MDA-N
# MOLT-4 leukemia = test system: MOLT-4 leukemia
# PC-3 prostate = test system: PC-3 prostate
# HOP-92 NSCLC = test system: HOP-92 NSCLC
# NCI/ADR-RES ovarian = test system: NCI/ADR-RES ovarian
# DU-145 prostate = test system: DU-145 prostate
# OVCAR-3 ovarian = test system: OVCAR-3 ovarian
# 786-0 renal = test system: 786-0 renal
# KM12 colon = test system: KM12 colon
# U251 CNS = test system: U251 CNS
# RXF 393 renal = test system: RXF 393 renal
# SK-MEL-5 melanoma = test system: SK-MEL-5 melanoma
# BT-549 breast = test system: BT-549 breast
# HL-60(TB) leukemia = test system: HL-60(TB) leukemia
# SF-539 CNS = test system: SF-539 CNS
structure (smiles),measurement,setting,value
CCc1nc2cc3cccnc3c(Cl)c2[nH]c1=O,TGI,UO-31 renal,> 100 µM
same,TGI,OVCAR-4 ovarian,> 100 µM
same,TGI,TK-10 renal,> 100 µM
same,TGI,NCI-H23 lung,> 100 µM
same,TGI,NCI-H226 lung,> 100 µM
same,TGI,K-562 leukemia,> 100 µM
same,TGI,UACC-257 melanoma,> 100 µM
same,TGI,MDA-MB-231 breast,> 100 µM
same,TGI,IGROV1 ovarian,> 100 µM
same,TGI,UACC-62 melanoma,> 100 µM
same,TGI,MALME-3M melanoma,> 100 µM
same,TGI,SK-OV-3 ovarian,> 100 µM
same,TGI,LOX IMVI melanoma,> 100 µM
same,TGI,SK-MEL-2 melanoma,> 100 µM
same,TGI,SN12C renal,> 100 µM
same,TGI,OVCAR-5 ovarian,> 100 µM
same,TGI,SNB-19 CNS,> 100 µM
same,TGI,HT29 colon,> 100 µM
same,TGI,RPMI-8226 leukemia,> 100 µM
same,TGI,CAKI-1 renal,> 100 µM
same,TGI,SR leukemia,> 100 µM
same,TGI,MCF7 breast,> 100 µM
same,TGI,SF-268 CNS,> 100 µM
same,TGI,NCI-H522 lung,> 100 µM
same,TGI,COLO 205 colon,> 100 µM
same,TGI,HCT-15 colon,> 100 µM
same,TGI,A549 NSCLC,> 100 µM
same,TGI,SK-MEL-28 melanoma,> 100 µM
same,TGI,NCI-H460 lung,> 100 µM
same,TGI,CCRF-CEM leukemia,> 100 µM
same,TGI,HOP-62 NSCLC,> 100 µM
same,TGI,SW-620 colon,> 100 µM
same,TGI,HCC-2998 colon,> 100 µM
same,TGI,T-47D breast,> 100 µM
same,TGI,SNB-75 CNS,50.4 µM
same,TGI,HS 578T breast,> 100 µM
same,TGI,ACHN renal,> 100 µM
same,TGI,SF-295 CNS,> 100 µM
same,TGI,MDA-MB-435,> 100 µM
same,TGI,OVCAR-8 ovarian,> 100 µM
same,TGI,A498 renal,> 100 µM
same,TGI,EKVX NSCLC,> 100 µM
same,TGI,M14 melanoma,> 100 µM
same,TGI,HCT-116 colon,> 100 µM
same,TGI,MDA-N,> 100 µM
same,TGI,MOLT-4 leukemia,> 100 µM
same,TGI,PC-3 prostate,> 100 µM
same,TGI,HOP-92 NSCLC,> 100 µM
same,TGI,NCI/ADR-RES ovarian,> 100 µM
same,TGI,DU-145 prostate,> 100 µM
same,TGI,OVCAR-3 ovarian,> 100 µM
same,TGI,786-0 renal,> 100 µM
same,TGI,KM12 colon,> 100 µM
same,TGI,U251 CNS,> 100 µM
same,TGI,RXF 393 renal,91.1 µM
same,TGI,SK-MEL-5 melanoma,> 100 µM
same,TGI,BT-549 breast,> 100 µM
same,TGI,HL-60(TB) leukemia,> 100 µM
COc1ccc(N=C2C(=S)N(c3ccc(OC)cc3)/C(=N/S(=O)(=O)c3ccccc3)N2c2ccccc2)cc1,TGI,UO-31 renal,13.4 µM
same,TGI,OVCAR-4 ovarian,22.4 µM
same,TGI,TK-10 renal,28.3 µM
same,TGI,NCI-H23 lung,29 µM
same,TGI,NCI-H226 lung,38.7 µM
same,TGI,K-562 leukemia,> 100 µM
same,TGI,UACC-257 melanoma,26.6 µM
same,TGI,MDA-MB-231 breast,10.6 µM
same,TGI,IGROV1 ovarian,28.1 µM
same,TGI,UACC-62 melanoma,16.2 µM
same,TGI,MALME-3M melanoma,36.2 µM
same,TGI,SK-OV-3 ovarian,> 55.4 µM
same,TGI,LOX IMVI melanoma,16.9 µM
same,TGI,SK-MEL-2 melanoma,25.5 µM
same,TGI,SN12C renal,32.4 µM
same,TGI,OVCAR-5 ovarian,32 µM
same,TGI,SNB-19 CNS,> 61 µM
same,TGI,HT29 colon,> 64.4 µM
same,TGI,RPMI-8226 leukemia,> 100 µM
same,TGI,CAKI-1 renal,28.2 µM
same,TGI,SR leukemia,> 66.4 µM
same,TGI,MCF7 breast,35.8 µM
same,TGI,SF-268 CNS,29.2 µM
same,TGI,NCI-H522 lung,4.24 µM
same,TGI,SF-539 CNS,25.1 µM
same,TGI,COLO 205 colon,24.8 µM
same,TGI,HCT-15 colon,23.5 µM
same,TGI,A549 NSCLC,> 73.1 µM
same,TGI,SK-MEL-28 melanoma,29.7 µM
same,TGI,NCI-H460 lung,> 73.2 µM
same,TGI,CCRF-CEM leukemia,> 100 µM
same,TGI,HOP-62 NSCLC,> 57 µM
same,TGI,SW-620 colon,16.3 µM
same,TGI,HCC-2998 colon,> 57.9 µM
same,TGI,T-47D breast,7.6 µM
same,TGI,SNB-75 CNS,35.1 µM
same,TGI,HS 578T breast,> 66.1 µM
same,TGI,ACHN renal,21.7 µM
same,TGI,SF-295 CNS,> 49.5 µM
same,TGI,MDA-MB-435,20.6 µM
same,TGI,OVCAR-8 ovarian,5.47 µM
same,TGI,A498 renal,> 100 µM
same,TGI,EKVX NSCLC,31.8 µM
same,TGI,M14 melanoma,12.2 µM
same,TGI,HCT-116 colon,17.7 µM
same,TGI,MDA-N,8.81 µM
same,TGI,MOLT-4 leukemia,> 100 µM
same,TGI,PC-3 prostate,11.1 µM
same,TGI,HOP-92 NSCLC,20.7 µM
same,TGI,NCI/ADR-RES ovarian,> 71.4 µM
same,TGI,DU-145 prostate,> 48.8 µM
same,TGI,OVCAR-3 ovarian,18.1 µM
same,TGI,786-0 renal,19.7 µM
same,TGI,KM12 colon,34.6 µM
same,TGI,U251 CNS,28.8 µM
same,TGI,RXF 393 renal,16 µM
same,TGI,SK-MEL-5 melanoma,11.1 µM
same,TGI,BT-549 breast,11.2 µM
same,TGI,HL-60(TB) leukemia,> 100 µM

# Source: PubChem BioAssay (NCI)
